Assay results reported in patent publication US4684664A, “Derivatives of β-(4-isocyano-1,2,3,4-diepoxycyclopentyl) acrylic acid” (Kureha Kagaku Kogyo Kabushiki Kaisha, priority 1984, dated 1987).
Converted amounts (≈) assume the structure as drawn.

Legend:
Type in all cases: cell-based
[1] = tested on: Staphylococcus aureus FDA 209PJc-1; experiment: Antibacterial activity, agar-dilution MIC, organism No. 1; details: Staphylococcus aureus, FDA209PJC1; Organism No. 1, bouillon-agar; read-out: Minimum Inhibitory Concentration
How it was run: (§1)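 An agar-dilution procedure on bouillon-agar medium was applied, and each MIC was recorded as micrograms of specimen per ml of medium.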

[2] = tested on: Staphylococcus aureus Terajima; experiment: Antibacterial activity, agar-dilution MIC, organism No. 2; details: Staphylococcus aureus; Organism No. 2, bouillon-agar; read-out: Minimum Inhibitory Concentration
How it was run: as §1

[3] = tested on: Staphylococcus aureus MS 353; experiment: Antibacterial activity, agar-dilution MIC, organism No. 3; details: Staphylococcus aureus, MS353; Organism No. 3, bouillon-agar; read-out: Minimum Inhibitory Concentration
How it was run: as §1

[4] = tested on: Streptococcus pyogenes Cook; experiment: Antibacterial activity, agar-dilution MIC, organism No. 4; details: Streptococcus pyogenes; Organism No. 4, bouillon-agar; read-out: Minimum Inhibitory Concentration
How it was run: as §1

[5] = tested on: Escherichia coli NIHJ-JC-2; experiment: Antibacterial activity, agar-dilution MIC, organism No. 5; details: Escherichia coli, NIHJJC2; Organism No. 5, bouillon-agar; read-out: Minimum Inhibitory Concentration
How it was run: as §1

[6] = tested on: Escherichia coli K12 C600 IAM 1264; experiment: Antibacterial activity, agar-dilution MIC, organism No. 6; details: Escherichia coli, IAM1264; Organism No. 6, bouillon-agar; read-out: Minimum Inhibitory Concentration
How it was run: as §1

[7] = tested on: Klebsiella pneumoniae PCI-602; experiment: Antibacterial activity, agar-dilution MIC, organism No. 7; details: Klebsiella pneumoniae, PCI602; Organism No. 7, bouillon-agar; read-out: Minimum Inhibitory Concentration
How it was run: as §1

[8] = tested on: Salmonella typhimurium IID 971; experiment: Antibacterial activity, agar-dilution MIC, organism No. 8; details: Salmonella enterica; Organism No. 8, bouillon-agar; read-out: Minimum Inhibitory Concentration
How it was run: as §1

Salmonella typhi 901 = experiment: Antibacterial activity, agar-dilution MIC, organism No. 9; details: Salmonella enterica, TYPHI, read-out: Minimum Inhibitory Concentration
How it was run: as §1

[9] = tested on: Salmonella paratyphi-A 1015; experiment: Antibacterial activity, agar-dilution MIC, organism No. 10; details: Salmonella enterica, PARATYPHI, read-out: Minimum Inhibitory Concentration
How it was run: as §1

[10] = tested on: Salmonella shottmuelleri 8006; experiment: Antibacterial activity, agar-dilution MIC, organism No. 11; details: Salmonella, 8006; Organism No. 11, bouillon-agar; read-out: Minimum Inhibitory Concentration
How it was run: as §1

[11] = tested on: Salmonella enteritidis G 14; experiment: Antibacterial activity, agar-dilution MIC, organism No. 12; details: Salmonella enterica, ENTERITIDIS; Organism No. 12, bouillon-agar; read-out: Minimum Inhibitory Concentration
How it was run: as §1

[12] = tested on: Serratia marcescens IAM 1184; experiment: Antibacterial activity, agar-dilution MIC, organism No. 13; details: Serratia marcescens, IAM1184; Organism No. 13, bouillon-agar; read-out: Minimum Inhibitory Concentration
How it was run: as §1

[13] = tested on: Bacillus subtilis ATCC 6633; experiment: Antibacterial activity, agar-dilution MIC, organism No. 14; details: Bacillus subtilis, ATCC6633; Organism No. 14, bouillon-agar; read-out: Minimum Inhibitory Concentration
How it was run: as §1

[14] = tested on: Pseudomonas aeruginosa IFO 3445; experiment: Antibacterial activity, agar-dilution MIC, organism No. 15; details: Pseudomonas aeruginosa, IFO3445; Organism No. 15, bouillon-agar; read-out: Minimum Inhibitory Concentration
How it was run: as §1

[15] = tested on: Pseudomonas aeruginosa NCTC 10490; experiment: Antibacterial activity, agar-dilution MIC, organism No. 16; details: Pseudomonas aeruginosa, NCTC10490; Organism No. 16, bouillon-agar; read-out: Minimum Inhibitory Concentration
How it was run: as §1

[16] = tested on: Pseudomonas aeruginosa PAO 1; experiment: Antibacterial activity, agar-dilution MIC, organism No. 17; details: Pseudomonas aeruginosa, PAO1; Organism No. 17, bouillon-agar; read-out: Minimum Inhibitory Concentration
How it was run: as §1

[17] = tested on: Proteus morganii IFO 3848; experiment: Antibacterial activity, agar-dilution MIC, organism No. 18; details: Morganella morganii, IFO3848; Organism No. 18, bouillon-agar; read-out: Minimum Inhibitory Concentration
How it was run: as §1

[18] = tested on: Proteus mirabilis IFO 3849; experiment: Antibacterial activity, agar-dilution MIC, organism No. 19; details: Proteus mirabilis, IFO3849; Organism No. 19, bouillon-agar; read-out: Minimum Inhibitory Concentration
How it was run: as §1

Proteus vulgaris OX-19 = experiment: Antibacterial activity, agar-dilution MIC, organism No. 20; details: Proteus vulgaris, OX19; Organism No. 20, bouillon-agar; read-out: Minimum Inhibitory Concentration
How it was run: as §1

Proteus vulgaris HX-19 = experiment: Antibacterial activity, agar-dilution MIC, organism No. 21; details: Proteus vulgaris, HX19; Organism No. 21, bouillon-agar; read-out: Minimum Inhibitory Concentration
How it was run: as §1

[19] = tested on: Proteus rettgeri IFO 3850; experiment: Antibacterial activity, agar-dilution MIC, organism No. 22; details: Providencia rettgeri, IFO3850; Organism No. 22, bouillon-agar; read-out: Minimum Inhibitory Concentration
How it was run: as §1

[20] = tested on: Enterobacter aerogenes ATCC 13048; experiment: Antibacterial activity, agar-dilution MIC, organism No. 23; details: Klebsiella aerogenes, ATCC13048; Organism No. 23, bouillon-agar; read-out: Minimum Inhibitory Concentration
How it was run: as §1

Enterobacter cloacae 963 = experiment: Antibacterial activity, agar-dilution MIC, organism No. 24; details: Enterobacter cloacae, 963; Organism No. 24, bouillon-agar; read-out: Minimum Inhibitory Concentration
How it was run: as §1

[21] = tested on: Micrococcus luteus ATCC 9341; experiment: Antibacterial activity, agar-dilution MIC, organism No. 25; details: Micrococcus luteus, ATCC9341; Organism No. 25, bouillon-agar; read-out: Minimum Inhibitory Concentration
How it was run: as §1

[22] = tested on: Streptococcus pyogenes IFO 3340; experiment: Antibacterial activity, agar-dilution MIC, organism No. 26; details: Streptococcus pyogenes, IFO3340; Organism No. 26, bouillon-agar; read-out: Minimum Inhibitory Concentration
How it was run: as §1

[23] = tested on: Streptococcus faecium IFO 3826; experiment: Antibacterial activity, agar-dilution MIC, organism No. 27; details: Enterococcus faecium, IFO3826; Organism No. 27, bouillon-agar; read-out: Minimum Inhibitory Concentration
How it was run: as §1

[24] = tested on: Mycoplasma pneumoniae IID817; experiment: Antimycoplasmal activity, MIC by phenol red colour change, organism No. 28; details: Mycoplasma, IID817; Organism No. 28, PPLO broth + 1% glucose, 37° C.; read-out: Minimum Inhibitory Concentration (MIC)
Description: Mycoplasma pneumoniae IID817 was used as the test microorganism in a culture medium prepared by adding 1% of glucose to "PPLO broth (manufactured by Difco Co.) liquid culture medium" at 37° C. with phenol red as an indicator, thereby culturing the test microorganism.

[25] = tested on: Candida albicans IAM 4905; experiment: Antifungal activity, agar-dilution MIC, organism No. 29; details: Candida albicans, IAM4905; Organism No. 29, bouillon-agar; read-out: Minimum Inhibitory Concentration
How it was run: as §1

[26] = tested on: Aspergillus niger IFO 6342; experiment: Antifungal activity, agar-dilution MIC, organism No. 30; details: Aspergillus niger, IFO6342; Organism No. 30, bouillon-agar; read-out: Minimum Inhibitory Concentration
How it was run: as §1

Structure (SMILES)	MIC [1] [µg/mL]	MIC [2] [µg/mL]	MIC [3] [µg/mL]	MIC [4] [µg/mL]	MIC [5] [µg/mL]	MIC [6] [µg/mL]	MIC [7] [µg/mL]	MIC [8] [µg/mL]	MIC (Salmonella typhi 901) [µg/mL]	MIC [9] [µg/mL]	MIC [10] [µg/mL]	MIC [11] [µg/mL]	MIC [12] [µg/mL]	MIC [13] [µg/mL]	MIC [14] [µg/mL]	MIC [15] [µg/mL]	MIC [16] [µg/mL]	MIC [17] [µg/mL]	MIC [18] [µg/mL]	MIC (Proteus vulgaris OX-19) [µg/mL]	also measured
[C-]#[N+]C12CC3(/C=C/C(=O)OCC(=O)c4ccc([N+](=O)[O-])cc4)OC3C1O2 (stereo not drawn) [compound 8]	12.5 (≈ 35.1 µM)	25 (≈ 70.2 µM)	12.5 (≈ 35.1 µM)	50 (≈ 140 µM)	25 (≈ 70.2 µM)	25 (≈ 70.2 µM)	50 (≈ 140 µM)	25 (≈ 70.2 µM)	12.5 (≈ 35.1 µM)	25 (≈ 70.2 µM)	25 (≈ 70.2 µM)	12.5 (≈ 35.1 µM)	100 (≈ 281 µM)	100 (≈ 281 µM)	> 100	> 100	> 100	25 (≈ 70.2 µM)	100 (≈ 281 µM)	12.5 (≈ 35.1 µM)	MIC (Proteus vulgaris HX-19): 12.5 µg/mL (≈ 35.1 µM); MIC [19]: > 100 µg/mL; MIC [20]: > 100 µg/mL; MIC (Enterobacter cloacae 963): > 100 µg/mL; MIC [21]: 12.5 µg/mL (≈ 35.1 µM); MIC [22]: 50 µg/mL (≈ 140 µM); MIC [23]: 25 µg/mL (≈ 70.2 µM); MIC [24]: 1.56 µg/mL; MIC [25]: 25 µg/mL (≈ 70.2 µM); MIC [26]: 100 µg/mL (≈ 281 µM)
[C-]#[N+]C12CC3(/C=C/C(=O)OCc4c(C)cc(C)cc4C)OC3C1O2 (stereo not drawn) [compound 11]	3.13 (≈ 9.62 µM)	6.25 (≈ 19.2 µM)	3.13 (≈ 9.62 µM)	3.13 (≈ 9.62 µM)	25 (≈ 76.8 µM)	25 (≈ 76.8 µM)	6.25 (≈ 19.2 µM)	12.5 (≈ 38.4 µM)	6.25 (≈ 19.2 µM)	12.5 (≈ 38.4 µM)	12.5 (≈ 38.4 µM)	12.5 (≈ 38.4 µM)	12.5 (≈ 38.4 µM)	0.78 (≈ 2.4 µM)	> 100	> 100	> 100	3.13 (≈ 9.62 µM)	12.5 (≈ 38.4 µM)	6.25 (≈ 19.2 µM)	MIC (Proteus vulgaris HX-19): 3.13 µg/mL (≈ 9.62 µM); MIC [19]: 12.5 µg/mL (≈ 38.4 µM); MIC [20]: > 100 µg/mL; MIC (Enterobacter cloacae 963): > 100 µg/mL; MIC [21]: < 0.1 µg/mL; MIC [22]: 3.13 µg/mL (≈ 9.62 µM); MIC [23]: 6.25 µg/mL (≈ 19.2 µM); MIC [24]: < 0.2 µg/mL; MIC [25]: 1.56 µg/mL (≈ 4.79 µM); MIC [26]: 6.25 µg/mL (≈ 19.2 µM)
[C-]#[N+]C12CC3(/C=C/C(=O)OCc4cccc(OC)c4)OC3C1O2 (stereo not drawn) [compound 12]	1.56 (≈ 4.98 µM)	3.13 (≈ 9.99 µM)	0.78 (≈ 2.49 µM)	3.13 (≈ 9.99 µM)	6.25 (≈ 19.9 µM)	6.25 (≈ 19.9 µM)	0.39 (≈ 1.24 µM)	6.25 (≈ 19.9 µM)	3.13 (≈ 9.99 µM)	3.13 (≈ 9.99 µM)	3.13 (≈ 9.99 µM)	3.13 (≈ 9.99 µM)	12.5 (≈ 39.9 µM)	1.56 (≈ 4.98 µM)	> 100	> 100	> 100	1.56 (≈ 4.98 µM)	3.13 (≈ 9.99 µM)	0.78 (≈ 2.49 µM)	MIC (Proteus vulgaris HX-19): < 0.1 µg/mL; MIC [19]: > 100 µg/mL; MIC [20]: > 100 µg/mL; MIC (Enterobacter cloacae 963): > 100 µg/mL; MIC [21]: < 0.1 µg/mL; MIC [22]: 3.13 µg/mL (≈ 9.99 µM); MIC [23]: 3.13 µg/mL (≈ 9.99 µM); MIC [24]: 0.4 µg/mL; MIC [25]: 1.56 µg/mL (≈ 4.98 µM); MIC [26]: 3.13 µg/mL (≈ 9.99 µM)
